Experimental data reported in patent US20240216490A1, “Autoantigens Engineered to Suppress Autoimmune Response” (Osprey Biopharmaceuticals, Inc., priority 2022, published 2024).

Key:
C57BL6 mice [1] = assay: anti-antigen antibody production in C57BL6 mice pre-dosed with adalimumab (Example 5); assay type: in vivo, mouse; details: one to four weekly 4 mg/kg s.c. doses (groups A to D); serum day 27
Description: To evaluate the production of antibodies specific to adalimumab-SigL conjugates after pre-dosing with adalimumab, C57BL6 mice were immunized with adalimumab one, two, three, or four times (groups A to D), or once with adalimumab followed by two doses of adalimumab-SigL (Group E) (FIG. 5). Conjugates bear BPC-Neu5Gc-based Siglec Ligand-Linker structures with affinity for Siglec-2. On study day −1, animals were randomized into treatment groups based on body weight. On study day 0, animals were bled for baseline serum and then injected subcutaneously (s.q.) with adalimumab, SigL-conjugated adalimumab antibody, or PBS, once every seven days for a total of four injections over twenty-eight days. The individual antigens were prepared by making a 0.8 mg/ml antigen solution in sterile buffered saline. Animals were then injected with 0.1 ml (˜4 ml/kg) of the 0.8 mg/ml antigen on the rear flanks. […]
(§1) Anti-drug antibody (ADA) response assays were performed on 96-well assay plates (Nunc Plates, Black 96-Well Immuno Plates, Thermo Scientific, 437111) coated with antigen, as follows. […] The excitation and emission settings for the QuantaBlu Fluorogenic Peroxide Substrates are 325 nm and 420 nm and the relative florescence units were measured using a SpectraMax plate reader. […] Titers were determined by the dilution of serum that gives a 2× OD above background.

C57Bl/6 mice [2] = assay: ADA response to adalimumab-anti-mouse CD22 scFv fusion protein in mice (Example 15); assay type: in vivo; details: after a single 4 mg/kg dose
Description: To evaluate the production of antibodies specific to adalimumab and/or adalimumab-anti-mouse CD22 scFv fusion protein, 8 week old female C57BL/6 mice (n=5 per group) were immunized through intravenous injection with adalimumab or adalimumab-anti-mouse CD22 scFv fusion protein. On study day −1, animals were randomized into treatment groups based on body weight. On study day 0, animals were bled for baseline serum and then injected IV with adalimumab or adalimumab-anti-mouse CD22 scFv fusion protein. Animals were dosed […] with 4 mg/kg of adalimumab or adalimumab-anti-mouse CD22 scFv fusion protein. Animals were bled via the retro-orbital sinus weekly throughout the study under inhaled isoflurane anesthesia. On study day, 28 animals were anesthetized with inhaled isoflurane anesthesia and then bled via cardiac puncture and then sacrificed by cervical dislocation. […]
as §1, with “ADA” for “Anti-drug antibody (ADA) response”

C57Bl/6 mice [3] = assay: ex vivo flow cytometry of splenic adalimumab-specific and germinal center B cells (Example 13); assay type: in vivo, mouse
Experimental: To measure B cell activation following the described stimulation, cells were washed twice by spinning cells at 1200 rpm for 5 minutes and rinsing with PBS. Cells were then resuspended in staining buffer (1% bovine serum albumin/0.1% sodium azide/1× phosphate buffered saline) and incubated with Fc-block (BD Biosciences) for five minutes before the addition of anti-CD45, anti-CD19, anti-CD69, and anti-CD86 antibodies (BD Biosciences, Biolegend, Fisher). Cells were then incubated in the dark for an additional 30 minutes at room temperature. Cells were then washed three times with staining buffer and then analyzed on a ZE5 Cell Analyzer (BioRad). Data analysis was performed using FlowJo (v10.8.0) software.
For studies evaluating the generation of adalimumab-specific B cells, C57Bl/6 mice were dosed with a single subcutaneous dose of either SigL-adalimumab (4 mg/kg) or unconjugated adalimumab (4 mg/kg). Splenocytes were then isolated from animals seven days after dosing. In the experiment depicted in FIG. 15, mice that had been dosed with unconjugated adalimumab (4 mg/kg) on Day 0 were dosed again on Day 3 with SigL-adalimumab (4 mg/kg, subcutaneous) or vehicle (PBS) prior to splenocyte isolation on Day 7 of the study.
For the evaluation of germinal center formation (FIG. 14), C57Bl/6 mice were dosed with a single subcutaneous dose of either SigL-adalimumab (4 mg/kg), unconjugated adalimumab (4 mg/kg) or vehicle (PBS) on Day 0. Animals in each arm of this study were then dosed on Day 7 with either a single subcutaneous dose of SigL-adalimumab (4 mg/kg) or unconjugated adalimumab (4 mg/kg). Formation of adalimumab-specific B cells and germinal center B cells were then analyzed on Day 14 of the study as described below.
At the specified time points described above, splenocytes were harvested from individual animals and made into single cell suspension, subjected to red cell lysis using ACK buffer, and plated at a concentration of 200,000 cells per well in round bottom 96 well plates in complete RPMI media. Cells were then processed for flow cytometry as described above. For adalimumab-specific B cells, splenocytes were stained with anti-CD4, ant-CD8a, anti-F4/80, anti-LY6G, anti-CD19, anti-IgD (BD Biosciences, Biolegend, Fisher, eBioscience) and adalimumab-[…] conjugate (Invitrogen). For germinal center B cells, splenocytes were stained with anti-CD45, anti-CD19, anti-GL7, and anti-CD95. Cells were then incubated in the dark for an additional 30 minutes at room temperature. Cells were then washed three times with staining buffer and then analyzed on a ZE5 Cell Analyzer (BioRad). Data analysis was performed using FlowJo (v10.8.0) software.

C57Bl/6 mice [4] = assay: durability of tolerization with late adalimumab challenges (Example 12); assay type: in vivo, mouse; details: 4 weekly 4 mg/kg s.c. doses, then adalimumab 4 mg/kg at days 91, 147, 174, 202
Experimental: To evaluate the durability of the induced tolerization status established with the SigL-conjugated adalimumab (as exemplified in Examples 4 and 11), female C57Bl/6 mice (n=5 per group) were primed with four subcutaneous doses of either SigL-conjugated adalimumab (4 mg/kg) or unconjugated adalimumab (4 mg/kg) given seven days apart over a 28 day period. Animals in both groups were later challenged with single subcutaneous doses of unconjugated adalimumab (4 mg/kg) at days 91, 147, 174, and 202. Animals were injected with 0.1 ml (˜4 mg/kg) of the 0.8 mg/ml test article preparations on the rear flanks. The total dose based on a 20 g mouse would be 4 mg/kg per injection per dose. Bleeds were taken for anti-drug antibody analysis at days 0, 28, 112, 146, 168, 201, and 232. Anti-drug antibody (ADA) response assays were performed as described in Example 4.

C57BL6 mice [5] = assay: prophylactic tolerization and anti-drug antibody (ADA) production in C57BL6 mice (Example 4); assay type: in vivo, mouse; details: 4 weekly s.c. doses of 4 mg/kg; serum day 28
Description: To evaluate the production of antibodies specific to adalimumab, two control groups of C57BL6 mice were immunized with adalimumab or the individual SigL-conjugated adalimumab antibodies. Conjugates bear BPC-Neu5Gc-based Siglec Ligand-Linker structures with affinity for Siglec-2. On study day −1, animals were randomized into treatment groups based on body weight. On study day 0, animals were bled for baseline serum and then injected subcutaneously (s.q.) with adalimumab or the individual SigL-conjugated adalimumab antibodies once every seven days for a total of four injections over twenty-eight days. The individual antigens were prepared by making a 0.8 mg/ml antigen solution in sterile buffered saline. Animals were then injected with 0.1 ml (˜4 ml/kg) of the 0.8 mg/ml antigen on the rear flanks. The total dose based on a 20 g mouse would be 4 mg/kg per injection. […]
as §1

Siglec-2 (CD22) = molecular target: T1, Siglec-2 (CD22) (Homo sapiens, UniProt P20273); details: value from cited reference; cited from earlier work
T1 sequence (P20273 20-847): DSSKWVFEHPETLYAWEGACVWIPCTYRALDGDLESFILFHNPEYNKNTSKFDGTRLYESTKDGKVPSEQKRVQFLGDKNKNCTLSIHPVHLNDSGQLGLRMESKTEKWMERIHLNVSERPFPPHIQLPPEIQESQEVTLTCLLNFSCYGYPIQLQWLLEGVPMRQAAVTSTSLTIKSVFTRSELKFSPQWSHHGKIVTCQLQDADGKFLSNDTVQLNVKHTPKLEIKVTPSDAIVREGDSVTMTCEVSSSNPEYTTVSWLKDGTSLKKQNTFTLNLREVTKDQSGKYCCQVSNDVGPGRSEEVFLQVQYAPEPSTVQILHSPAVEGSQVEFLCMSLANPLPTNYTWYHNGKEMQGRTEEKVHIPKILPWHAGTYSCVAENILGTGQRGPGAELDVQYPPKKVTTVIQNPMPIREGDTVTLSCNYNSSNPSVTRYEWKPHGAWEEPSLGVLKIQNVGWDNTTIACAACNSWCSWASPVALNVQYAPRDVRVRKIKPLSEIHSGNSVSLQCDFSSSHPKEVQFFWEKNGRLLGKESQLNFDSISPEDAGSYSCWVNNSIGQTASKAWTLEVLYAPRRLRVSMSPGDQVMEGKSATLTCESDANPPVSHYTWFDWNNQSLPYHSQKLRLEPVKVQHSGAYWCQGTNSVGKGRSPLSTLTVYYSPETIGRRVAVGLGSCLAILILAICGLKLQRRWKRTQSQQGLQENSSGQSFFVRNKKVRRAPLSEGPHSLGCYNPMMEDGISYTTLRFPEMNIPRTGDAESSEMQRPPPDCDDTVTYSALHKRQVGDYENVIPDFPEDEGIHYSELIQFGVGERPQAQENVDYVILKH

adalimumab
anti-adalimumab titers (C57BL6 mice [1]): progressively stronger anti-adalimumab titers | immunogenicity in mice (immunoglobulin response) (C57Bl/6 mice [2]): highly immunogenic | presence of adalimumab-specific B cells (CD45+CD19+IgD−Adal+) in spleen (C57Bl/6 mice [3]; 7 days post single 4 mg/kg s.c. dose): detected | splenic adalimumab-specific B cells (C57Bl/6 mice [3]; day 14, s.c. dosing days 0 and 7, conjugate day 0 followed by adalimumab day 7): induces | mean abundance of adalimumab-specific B cells (C57Bl/6 mice [3]; spleen, 7 days post single 4 mg/kg s.c. dose): 0.2 % of splenic IgD^− B cells | germinal center B cells (CD19+CD95+GL7+) (C57Bl/6 mice [3]; spleen, day 14, dosing days 0 and 7): increase in the abundance of germinal center B cells | anti-drug antibody level (C57Bl/6 mice [4]): strong, saturating level of ADA | immunogenicity (anti-drug antibody response, serum IgG titer) (C57BL6 mice [5]): highly immunogenic

COc1ccc(OC2OC(COC3(C(=O)O)CC(O)C(NC(=O)CO)C(C(O)C(O)CNCc4ccc(-c5ccc(O)cc5)cc4)O3)C(O)C(O)C2O)cc1 (stereo not shown)
IC50 (Siglec-2 (CD22)): 240 nM

COC1(C(=O)O)CC(NS(=O)(=O)c2ccc(C)cc2)C(NC(C)=O)C(C(O)C(O)CNC(=O)c2ccc(-c3ccccc3)cc2)O1 (stereo not shown)
IC50 (Siglec-2 (CD22)): 150 nM

O=C(Cc1ccc(-c2ccc(O)cc2)cc1)NC[C@@H](O)C(O)C1O[C@@](OCc2cccc(Cl)c2Cl)(C(=O)O)CC(O)[C@H]1NS(=O)(=O)c1ccccc1[N+](=O)[O-] (stereo partly shown)
IC50 (Siglec-2 (CD22)): 60 nM

O=C(Cc1ccc(-c2ccc(O)cc2)cc1)NCC(O)C(O)C1OC(OCc2ccccc2)(C(=O)O)CC(O)C1NC(=O)CO (stereo not shown)
IC50 (Siglec-2 (CD22)): 100 nM

CO[C@]1(C(=O)O)CC(O)[C@@H](NC(C)=O)C([C@H](O)[C@H](O)CNC(=O)c2ccc(-c3ccccc3)cc2)O1 (stereo partly shown)
IC50 (Siglec-2 (CD22)): 4000 nM
